Counter-ions that a name gives are not always drawn. Like-named read-outs stand apart in the source and are kept apart here.
How the values were obtained:
[1] = cited from earlier work
[2] = cited from earlier work; remark: listed apart in the source
[3] = Excerpt: (§1) k′app=k′HA([H^+]+^surfaceKa)/([H^+]+^bulkKa) Eq. 7
(§2) where k′app is the capacity factor of the test compound measured at different mobile phase pH conditions, and k′HA is the capacity factor of the non-ionized species. Nonlinear fitting of the three experimentally measured parameters [H+], k′app, and k′HA to eq. 7 can be used to obtain numerical estimates for both ^surface Ka and ^bulkKa of the compound.
(§3) k′app=k′A^−([H^+]/^surfaceKa+1)/([H^+]/^bulkKa+1) Eq. 8
(§4) The reason for developing eq. 7 is that eq. […] Both parameters (k′HA and k′A^−) can be treated as unknowns in the equations (like ^bulkKa and ^surfaceKa), and the experimental data can be used to calculate (by non-linear curve fitting) three parameters (k′HA (or k′A^−) and ^bulkKa and ^surfaceKa) instead of two (^bulkKa and ^surfaceKa). This reduces the number of experimental data to be collected, and still allows the determination of the desired parameters (^bulkKa and ^surfaceKa).
(§5) The conventional thinking regarding equations 7 and 8 is that k′HA and k′A^− (the capacity factors of the […] species) are constants that have to be determined experimentally in order to calculate ^bulkpKa and ^surfacepKa. […] This is problematic because it may require use of pH's greater than 8-9, which in the case of some test surfaces causes deterioration. […] If sufficient data are collected (no matter what the pH range is), non-linear curve fitting techniques can be used to fit three parameters (^bulkpKa, ^surfacepKa and k′HA (or k′A^−, depending on whether you use Eq. 7 or Eq. 8)) instead of two (^bulkpKa and ^surfacepKa).
(§6) The test compounds were injected as two distinct mixtures (acidic and basic compounds) to avoid acid/base interactions during the chromatographic runs. […] The retention time (tr) was determined for each compound and the corresponding capacity factor k′app was calculated. Between each run, column degradation was evaluated by running the standard compounds at pH=7.4.
(§7) The retention time of each compound was determined using the Esquire Data Analysis software. The capacity factors k′app were calculated using the equation: k′app=(tr−t0)/t0 where the tr is the retention time, and t0 is the dead time. The final ^surfaceKa and ^bulkKa were calculated by nonlinear least square curve fitting of the following equations:
(§8) k′app=k′HA([H^+]+^surfaceKa)/([H^+]+^bulkKa) (Eq. 7 as shown above).
(§9) k′app=k′A^−([H^+]/^surfaceKa+1)/([H^+]/+^bulkKa+1) (Eq. 8 as shown above).
(§10) [H^+] was calculated from the mobile phase pH values used for the experiment. The fitting parameters were k′A^−, ^surfaceKa, and ^bulkKa for the acidic compounds and kHA, ^surfaceKa, and ^bulkKa for the basic compounds.
(§11) The nonlinear fitting function is from the commercial software S-PLUS (MathSoft). Briefly, the function tries to estimate the parameters to minimize the sum of the squared differences between the response and the prediction. We collected data at 15 different pH values. […] Like all silica based chromatography material, Immobilized Artificial Membranes (IAM's) are unstable in the presence of chemically basic mobile phase, and column lifetimes decrease under these conditions. Thus it is not possible to continuously perfuse IAM columns with basic mobile phases for extended periods of time. […] In summary, 12 points were used to curve fit the data.
(§12) For each compound, the retention time (tr) was determined and the corresponding capacity factor (k′app) was calculated under various mobile phase pH conditions.

[4] = remark: listed apart in the source
Excerpt: as §1, §2, §3, §4, §5
The data was collected on 4.6×30 mm^esterIAM.PC^C10/C3 columns. Four ^esterIAM.PC^C10/C3 columns were used to collect all the experimental data.
as §6, §7, §8, §9, §10, §11, §12

[5] = literature, cited from earlier work; for bulkpka2 (Ref.): second ionizable group
[6] = Capacity factor (k′app) by LC/MS on an immobilized artificial membrane column at varied mobile phase pH; type: physicochemical
[7] = 0.01 M PBS mobile phase, 12 pH points 4.05 to 8.06, monovalent equations
[8] = esterIAM.PC C10/C3 column, 0.01 M PBS mobile phase, 12 pH points 4.05 to 8.06, monovalent equations

For `CCCCCCCCCCCCC/C=C/[C@@H](O)[C@H](CO)N(C)C` [DMS, N,N-Dimethyl-D-sphingosine], which fraction protonated ([1]; at physiological pH) is on record?
Its fraction protonated is 90%.

And the “membrane bound pKa value” [1]?
Its value is 8.8.

Which “location in the membrane” value ([2]; pH 5.5, positively charged form) does the source give for `CCCCNc1ccc(C(=O)OCCN(C)C)cc1` [TTC, tetracaine hydrochloride] here?
Its value is “resides near the phospholipid head group region”.

And the “location in the membrane” value ([2]; pH 9.0, uncharged form)?
Its value is “penetrates more deeply into the hydrocarbon region of the membrane”.

For `CC[C@H]1[C@@H]2C[C@H]3[C@@H]4N(C)c5ccccc5[C@]45C[C@@H]([C@H]2[C@H]5O)N3[C@@H]1O` [ajmaline], which “bulkpKa (Exp.)” value [3, 7] is on record?
The value was 7.43.

And the “surfacepKa (Exp.)” value [4, 8]?
Its value is 6.75.

What about the “bulkpKa1 (Ref.)” value ([5]; 20° C., DMFA/H2O-80%) of the same molecule?
Its value is 8.1.

Which results are given for `COc1cc2c(cc1OC)[C@@]13CCN4CC5=CCO[C@H]6CC(=O)N2[C@H]1[C@H]6[C@H]5C[C@H]43` [brucine]?
bulkpKa (Exp.) [3, 7]: 7.9; surfacepKa (Exp.) [4, 8]: 6.55; bulkpKa1 (Ref.) ([5]; conditions not given): 6.04; bulkpka2 (Ref.) [5]: 11.70

Which “bulkpKa (Exp.)” value [3, 7] does the source give for `CN(C)CCOC(C)(c1ccccc1)c1ccccn1` (centres unmarked) [doxylamine] here?
The value was 7.93.

What about the “surfacepKa (Exp.)” value [4, 8] of the same molecule?
Its value is 6.72.

What about the “bulkpKa1 (Ref.)” value ([5]; conditions not given) of the same molecule?
Its value is 7.64.

And the “bulkpka2 (Ref.)” value [5]?
Its value is 9.20.

Which “bulkpKa (Exp.)” value [3] does the source give for `CCC[C@@H]1C[C@@H](C(=O)N[C@@H]([C@H]2O[C@H](SC)[C@H](O)[C@@H](O)[C@H]2O)[C@@H](C)O)N(C)C1` [lincomycin] here?
Its value is 7.54.

What about the “surfacepKa (Exp.)” value [4] of the same molecule?
The value was 6.28.

What about the “bulkpKa1 (Ref.)” value ([5]; conditions not given) of the same molecule?
The value was 7.5.

Which “bulkpKa (Exp.)” value [3] does the source give for `COc1ccc(OC)c(C(O)CNC(=O)CN)c1` (centres unmarked) [midodrine] here?
Its value is 6.65.

And the “surfacepKa (Exp.)” value [4]?
Its value is 6.18.

And the “bulkpKa1 (Ref.)” value ([5]; 0.3% aq. soln)?
Its value is 7.80.

Which results are given for `Cc1cc(-c2ccccc2)nnc1NCCN1CCOCC1` [minaprine]?
bulkpKa (Exp.) [3]: 6.75; surfacepKa (Exp.) [4]: 5.75; bulkpKa1 (Ref.) ([5]; conditions not given): 7.05; bulkpka2 (Ref.) [5]: 4

Which results are given for `CCn1cc(C(=O)O)c(=O)c2ccc(C)nc21` [nalldixic acid]?
bulkpKa (Exp.) [3, 7]: 6.03; surfacepKa (Exp.) [4, 8]: 7.54; bulkpKa1 (Ref.) ([5]; conditions not given): 6.02

With `C=C1CC[C@@]2(O)[C@H]3Cc4ccc(O)c5c4[C@@]2(CCN3CC2CC2)[C@H]1O5` [nalmefene] as the molecule, how does the “bulkpKa (Exp.)” value [3, 7] read?
The value was 7.81.

And the “surfacepKa (Exp.)” value [4, 8]?
The value was 6.88.

What about the “bulkpKa1 (Ref.)” value ([5]; conditions not given) of the same molecule?
Its value is 7.63.

With `C=CCN1CC[C@]23c4c5ccc(O)c4O[C@H]2[C@@H](O)C=C[C@H]3[C@H]1C5` [nalorphine] as the molecule, how does the “bulkpKa (Exp.)” value [3, 7] read?
The value was 7.63.

What about the “surfacepKa (Exp.)” value [4, 8] of the same molecule?
The value was 6.04.

What about the “bulkpKa1 (Ref.)” value ([5]; conditions not given) of the same molecule?
Its value is 7.8.

Which “bulkpKa (Exp.)” value [3, 7] does the source give for `C=CCN1CC[C@]23c4c5ccc(O)c4O[C@H]2C(=O)CC[C@@]3(O)[C@H]1C5` [naloxone] here?
The value was 7.84.

And the “surfacepKa (Exp.)” value [4, 8]?
The value was 6.24.

Which results are given for `CC1COc2c(N3CCN(C)CC3)c(F)cc3c(=O)c(C(=O)O)cn1c23` (centres unmarked) [ofloxacin]?
bulkpKa (Exp.) [3, 7]: 6.84; surfacepKa (Exp.) [4, 8]: 7.32; bulkpKa1 (Ref.) ([5]; conditions not given): 5.74; bulkpka2 (Ref.) [5]: 7.9

For `COc1cc(NS(=O)(=O)c2ccc(N)cc2)nc(OC)n1` [sulfadimethoxine], which “Capacity Factor (k′app) on IAM.PC Surface” value (“Capacity Factor (k′app)” below) ([6]; mobile phase pH 4.05) is on record?
Its value is 152.07.

What about the “Capacity Factor (k′app)” value ([6]; mobile phase pH 4.53 (not used for curve fit)) of the same molecule?
Its value is 131.83.

And the “Capacity Factor (k′app)” value ([6]; mobile phase pH 5.01)?
Its value is 131.23.

And the “Capacity Factor (k′app)” value ([6]; mobile phase pH 5.51)?
Its value is 116.77.

What about the “Capacity Factor (k′app)” value ([6]; mobile phase pH 6.10) of the same molecule?
Its value is 67.79.

And the “Capacity Factor (k′app)” value ([6]; mobile phase pH 6.38)?
The value was 46.54.

What about the “Capacity Factor (k′app)” value ([6]; mobile phase pH 6.71) of the same molecule?
Its value is 28.10.

What about the “Capacity Factor (k′app)” value ([6]; mobile phase pH 7.00) of the same molecule?
Its value is 19.48.

What about the “Capacity Factor (k′app)” value ([6]; mobile phase pH 7.17) of the same molecule?
The value was 13.49.

And the “Capacity Factor (k′app)” value ([6]; mobile phase pH 7.45)?
Its value is 8.24.

And the “Capacity Factor (k′app)” value ([6]; mobile phase pH 7.69)?
The value was 6.40.

And the “Capacity Factor (k′app)” value ([6]; mobile phase pH 7.91)?
Its value is 4.85.

What about the “Capacity Factor (k′app)” value ([6]; mobile phase pH 8.06) of the same molecule?
Its value is 3.52.

And the “Capacity Factor (k′app)” value ([6]; mobile phase pH 8.81 (column degradation, not used for curve fit))?
The value was 2.84.

And the “Capacity Factor (k′app)” value ([6]; mobile phase pH 10.42 (column degradation, not used for curve fit))?
The value was 0.71.

And the “bulkpKa (Exp.)” value [3, 7]?
Its value is 6.02.

What about the “surfacepKa (Exp.)” value [4, 8] of the same molecule?
Its value is 7.64.

What does the source list for `COc1cc2nc(N3CCN(C(=O)C4CCCO4)CC3)nc(N)c2cc1OC` (centres unmarked) [terazosin]?
bulkpKa (Exp.) [3]: 6.65; surfacepKa (Exp.) [4]: 6.17; bulkpKa1 (Ref.) ([5]; 0.1 N NaOH): 7.1

With `CC(=O)CC(c1ccccc1)c1c(O)c2ccccc2oc1=O` (centres unmarked) [warfarin] as the molecule, how does the “bulkpKa (Exp.)” value [3, 7] read?
The value was 5.43.

What about the “surfacepKa (Exp.)” value [4, 8] of the same molecule?
The value was 7.

— patent publication US6562627B1, “High throughput method for measurement of physicochemical values” (BDC Pharma LLC, priority 1998, dated 2003)
